# Measurements published in US10285966B2, “10-hydroxy-cis-12-octadecenoic acid alkyl ester and use thereof” (NITTO PHARMACEUTICAL INDUSTRIES, LTD., priority 2015, dated 2019).
# Assay: State (liquid or solid) at ambient temperature by visual observation
# Format: physicochemical
# Details: for liquid or solid at ambient temperature: ambient temperature (about 15-25° C.), visual observation; for State at standard temperature: Table 1
# Method: The compounds (1)-(3) of the present invention are desirably liquid at ambient temperature. In the present specification, the ambient temperature refers to the ambient temperature (15° C.-25° C.) defined in the Japanese Pharmacopoeia, 16th edition, General Rules, the Japanese Pharmacopoeia, 17th edition, General Rules. In addition, “about” here means ±1° C.
# Whether the compounds of Examples 1 and 2 and HYA of Comparative Example are liquid or solid at ambient temperature (about 15-25° C.) was confirmed by visual observation.
liquid or solid at ambient temperature,State at standard temperature,SMILES
liquid,–,"CCCCC/C=C\CC(O)CCCCCCCCC(=O)OCCC (stereo not drawn) [Example 2, propyl 10-hydroxy-cis-12-octadecenoate]"
liquid,liquid,"CCCCC/C=C\CC(O)CCCCCCCCC(=O)OCC (stereo not drawn) [Example 1, ethyl 10-hydroxy-cis-12-octadecenoate]"
solid,solid,"CCCCC/C=C\CC(O)CCCCCCCCC(=O)O (stereo not drawn) [HYA, 10-hydroxy-cis-12-octadecenoic acid]"
